By IC50 is commonly meant the point on the concentration scale where inhibition reaches its midpoint. One may read the CC50 as the concentration at which the toxic effect on the cells reaches its halfway point.

For series [1], the system named is M. tuberculosis strain SPAM13C (LepB-UE). Put plainly: microbe, parasite or virus in culture. It counts as cell-based, Mycobacterium tuberculosis. The note with it: for LepB-UE MIC / MIC: M. tuberculosis strain SPAM13C, OD590 after 5 days at 37 °C, average ± SD of at least two experiments, b = single value; for MIC: Mycobacterium tuberculosis, 120 h, read-out: LepB-UE MIC; for Change in potency against LepB-UE compared to compound 1: decrease in potency relative to compound 1.

The subject of series [2] is wild-type (wt) M. tuberculosis strain. Put plainly: microbe, parasite or virus in culture. It counts as cell-based, Mycobacterium tuberculosis. As to conditions: […], OD590 after 5 days at 37 °C, average ± SD of at least two experiments, b = single value; for MIC: Mycobacterium tuberculosis, 120 h, read-out: WT MIC.
Another series has as its target T1, LepB (Mycobacterium tuberculosis, UniProt P9WKA1).
T1 construct: we used purified membrane fractions to develop an in vitro assay for signal peptide cleavage; host or cells: γ-irradiated whole M. tuberculosis H37Rv; Triton X-114 membrane fraction
T1 sequence (P9WKA1 1-294): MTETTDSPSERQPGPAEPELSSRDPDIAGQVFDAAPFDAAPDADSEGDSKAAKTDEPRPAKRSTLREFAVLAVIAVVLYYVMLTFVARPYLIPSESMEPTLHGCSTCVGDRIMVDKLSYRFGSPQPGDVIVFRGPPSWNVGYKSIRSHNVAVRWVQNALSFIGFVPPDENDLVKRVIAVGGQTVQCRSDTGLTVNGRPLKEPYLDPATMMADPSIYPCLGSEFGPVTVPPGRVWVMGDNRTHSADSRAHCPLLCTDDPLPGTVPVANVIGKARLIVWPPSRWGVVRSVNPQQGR
Put plainly: LepB membrane assay (fluorogenic signal peptide cleavage by cell membrane fraction). The note with it: M. tuberculosis H37Rv cell membrane fraction, 2 μM peptide substrate, 4 h at 37 °C. It counts as biochemical.

Another series in a line: in vitro. The note with it: African green monkey. It is filed as cell-based, African green monkey. As to the method: (§1) Cytotoxicity against African green monkey adult kidney cell (Vero cells) was determined as previously described using CellTiter-Glo reagent.[44] The concentration causing 50% growth inhibition (IC50) was calculated by fitting the inhibition curves using the Levenberg–Marquardt algorithm.

Another series concerns Vero cells. Briefly: in vitro. It is filed as cell-based, African green monkey. As to conditions: relative to compound 16. As to the method: as §1

Each structure is given as a SMILES string. Converted amounts (≈) assume the structure as drawn.

With `Cc1ccc(-c2cc(C(=O)N/N=C/c3ccccn3)[nH]n2)cc1` [Compound 15], the “LepB-UE MIC” value in series [1] came to 15 ± 2.5 µM. Further, the MIC in series [2] is above 200 µM. At LepB, this compound yielded an IC50 above 200 µM. In the series “in vitro”, this compound had a CC50 of 63 µM.
For the compound `N=C(N/N=C/c1cc([N+](=O)[O-])ccc1O)c1ccccn1` [Compound 16], the MIC was 10 ± 3.4 µM (≈ 2.85 µg/mL) in series [1] and above 200 µM in series [2]. This compound gave an IC50 on LepB of 119 µM. The 50% cytotoxic concentration (CC50) in “in vitro” was above 100 µM.
Consider `C/C(=N\Nc1nc(C)cc(C)n1)c1ccco1` [Compound 20], for which the “Change in potency against LepB-UE compared to compound 1” value (“Change in potency against LepB-UE” for short) in series [1] was “at least 10 fold”. In addition, the MIC in series [2] is above 200 µM. Further, the IC50 against LepB was 74 µM. The CC50 in the series “in vitro” was above 100 µM.
Turning to `C/C(=N\Nc1nc(C)cc(C)n1)c1cccs1` [Compound 21], the “Change in potency against LepB-UE” value in series [1] is reported as “at least 10 fold”. Also, in series [2], the MIC is above 200 µM. Besides, the midpoint of inhibition at LepB, the IC50, lay at 120 µM. The compound also came in with a CC50 in “in vitro” above 100 µM.
The corresponding values for `C/C(=N\Nc1nc(C)cc(C)n1)c1ccccc1` [Compound 22] are “at least 10 fold”, above 200 µM, above 200 µM and above 100 µM.
Turning to `C/C(=N\Nc1nc(C)cc(C)n1)c1cccc(O)c1` [Compound 23], in series [1], the “LepB-UE MIC” value was determined as 54 ± 2 µM, the MIC is 30 to 90 µM (≈ 7.69 to 23.1 µg/mL) and the “Change in potency against LepB-UE” value is on record as “at least 10 fold”. For the same compound, the MIC in series [2] was found to be 115 µM (≈ 29.5 µg/mL). The midpoint of inhibition against LepB, the IC50, lay at 140 µM. Further, in “in vitro”, the CC50 is above 100 µM.
As for `Cc1cc(C)nc(NN=C(c2ccccc2)c2ccccc2)n1` [Compound 27], in series [1], the MIC was 2.2 ± 0.7 µM (≈ 0.665 µg/mL) and the “Change in potency against LepB-UE” value is on record as “little impact on antitubercular activity compared to compound 1”. Besides, in series [2], the MIC turned out to be 17 ± 8 µM (≈ 5.14 µg/mL). The same compound yielded an IC50 at LepB above 200 µM. This compound also came in with a CC50 in the series “in vitro” of 0.1 µM.
The corresponding values for `C/C(=N\Nc1nnc2c(n1)[nH]c1ccc(C)cc12)c1ccccn1` [Compound 28] are 4.8 ± 2.4 µM (≈ 1.52 µg/mL), “activity was comparable to that of 1”, above 200 µM, 87 µM and 1.2 µM.
For `COc1ccc([N+](=O)[O-])cc1/C=N/NC(=N)c1ccccn1` [Compound 33], the MIC in series [1] and in series [2] was above 200 µM throughout. Besides, the “Decrease in selectivity compared to 16” value in the series with Vero cells turned out to be 15 fold. Besides, in the series “in vitro”, the CC50 was above 100 µM.
For `N=C(N/N=C/c1cccc([N+](=O)[O-])c1)c1ccccn1` [Compound 34], the MIC is 106 µM (≈ 28.5 µg/mL) in series [1] and above 200 µM in series [2]. For the same compound, the “Decrease in selectivity compared to 16” value with Vero cells is on record as 15 fold. In “in vitro”, this compound registered a CC50 above 100 µM.
As to `COc1ccc(CC(=O)N/N=C(\C)c2ccccn2)cc1OC` [Compound 36], the MIC in series [1] was found to be 26 ± 1 µM (≈ 8.15 µg/mL); in series [2], 53 ± 2 µM (≈ 16.6 µg/mL). The IC50 at LepB was above 200 µM. The compound also returned a CC50 in “in vitro” of 12 µM.
Take `C/C(=N\NC(=O)C1CCCN(S(=O)(=O)c2ccccc2)C1)c1ccccn1` (stereo not shown) [Compound 38]: in series [1], the “LepB-UE MIC” value is 4.9 ± 0.2 µM and the MIC lay within 3.5 to 15 µM (≈ 1.35 to 5.8 µg/mL). Moreover, the MIC in series [2] worked out at 17 ± 5 µM (≈ 6.57 µg/mL). In addition, the IC50 at LepB amounted to 180 µM. The compound also came in with a CC50 in the series “in vitro” of 9.5 µM.
Take `C/C(=N\NC(=O)c1ccoc1C)c1ccccn1` [Compound 39]: in series [1], the “LepB-UE MIC” value came out at 2.5 ± 0.2 µM and the MIC lay in the range of 2 to 2.5 µM (≈ 0.487 to 0.608 µg/mL). In series [2], the MIC is below 10 µM and the “WT MIC” value turned out to be 5.5 ± 1.4 µM. The IC50 against LepB was above 200 µM. In “in vitro”, this compound had a CC50 of 3.3 µM.
For `C/C(=N\NC(=O)C1CC1)c1ccccn1` [Compound 40], in series [1], the “LepB-UE MIC” value came to 15 ± 1 µM. The MIC in series [2] came to 42 ± 15 µM (≈ 8.54 µg/mL). The compound also displayed an IC50 against LepB above 200 µM. The CC50 in “in vitro” was found to be 75 µM.
For the compound `C/C(=N\NS(=O)(=O)c1ccccc1)c1ccccn1` [Compound 42], in series [1], the MIC worked out at 48 µM (≈ 13.2 µg/mL) and the “Change in potency against LepB-UE” value was 16 fold. In series [2], the MIC amounted to 94 µM (≈ 25.9 µg/mL). This compound also had an IC50 at LepB of 34 µM. In the series “in vitro”, this compound yielded a CC50 above 100 µM.
`Cc1cc(C)nc(-n2nc(C)cc2C)n1` [Compound 43]: the MIC in series [1] came to 48 ± 2 µM (≈ 9.71 µg/mL); in series [2], 115 ± 23 µM (≈ 23.3 µg/mL). For the same compound, the IC50 at LepB was above 200 µM. The CC50 in the series “in vitro” is above 100 µM.
The corresponding values for `Cc1cc(C)nc(-n2nc(C)c(Oc3ccccc3O)c2C)n1` [Compound 44] are 95 ± 7 µM (≈ 29.5 µg/mL), above 200 µM, above 200 µM and above 100 µM.
The corresponding values for `CC1=NN(c2nc(C)cc(C)n2)C(=O)C1C` (stereo not shown) [Compound 46] are 90 ± 28 µM (≈ 19.6 µg/mL), above 200 µM, above 200 µM and above 100 µM.
The corresponding values for `Cc1cc(C)nc(-n2nc(C)c(Cc3ccccc3C)c2O)n1` [Compound 47] are 61 ± 7 µM (≈ 18.8 µg/mL), above 200 µM, above 200 µM and above 100 µM.
Turning to `Cc1cc(C)nc(NNC(=O)c2ccccn2)n1` [Compound 57], in series [1], the “LepB-UE MIC” value came out at 3.9 ± 1.3 µM, the MIC is 3.5 to 15 µM (≈ 0.851 to 3.65 µg/mL) and the “Change in potency against LepB-UE” value is given as “activity similar to that of 1”. In series [2], the MIC is 25 µM (≈ 6.08 µg/mL) and the “WT MIC” value came to 25 ± 4 µM. Inhibition against LepB was half-maximal at 64 µM (IC50). Besides, the half-maximal cytotoxic concentration (CC50) in “in vitro” was 32 µM.

These data come from article PMC5215716, “A Target-Based Whole Cell Screen Approach To Identify Potential Inhibitors of Mycobacterium tuberculosis Signal Peptidase” (ACS Infectious Diseases, 2016).
